We go through 1 compound from article PMC8834506, “Optimization of Thymidine Kinase-Based Safety Switch for Neural Cell Therapy” (Cells, 2022).

Series [1] concerns ReNcells Ki67-SR39h (proliferating). The experiment in a line: ATP-based assay, EC50 and kinetics of cell death in proliferating neural progenitors. Also on record: species or system human. The note with it: for EC50: Homo sapiens, 96 h GCV exposure. As for the experimental part: (§1) We then compared the ability of GCV to kill proliferating NPC that expressed the SR39h thymidine kinase under the control of the ubiquitin (ReNcells Ubi-SR39h) or the Ki67 promoter. (ReNcells Ki67-SR39h) (Figure 4). For this purpose, we first performed a dose response to GCV on undifferentiated NPC. […] We then explored the kinetic of cell death with the suicide enzyme driven either by Ki67 or ubiquitin promoter for different concentrations of GCV. The rapidity of cell death induction but not its final extent was a function of the GCV concentrations. […] This was true for a short-term treatment at 24 h and 48 h, but not at the later time points at 72 h and 96 h (Figure 4D).
Figure 4 EC50 and kinetics of GCV-induced cell death in proliferating and post-mitotic ReNcells. SR39h was expressed in ReNcells (immortalized neural precursor cells that can be differentiated to post-mitotic neurons) under the control of the two different promoters: Ki67 or ubiquitin. Wild type ReNcells were used as control. […] (B–D) Kinetics of cell death of SR39-expressing ReNcells cells either under the control of cycle promoter Ki67 or ubiquitin promoter with increasing GCV concentrations of 1, 10, and 100 µM. Cell viability was measured every 24 h using a bioluminescent ATP-based assay (n = 3). (E) ReNcells were differentiated toward post-mitotic neurons for 21 days then treated with GCV for 10 days. Cell viability was measured using an ATP-based assay. Results are mean + SD of three independent experiments performed in triplicates. (F) Immunostaining, Hoechst in blue and Beta III tubulin (βIII tub) in green, ReNcells were differentiated toward neurons for 21 days, then treated with 10 µM of GCV during 10 days. TEXT PRINTED IN THE PICTURE: (A) GCV: ReNcell wt: 1.2 x 10^-5; ReNcell Ki67-SR39h: 2.1 x 10^-9; ReNcell Ki67-SR39h: 2.1 x 10^-9 DOUBTS OF THE COPYIST ABOUT THIS PICTURE: Panel A table: the picture prints no measure or unit for the three values. The only printed substance label is the axis title 'GCV in M', and the table rows are cell lines, so they are written as targets of the values.
Cell culture plate (96 wells plate Corning #3907, Corning, Lonay, Switzerland) were pre-coated with 60 μL per well of Poly-L-ornithine solution (Sigma, Merk, Eysins, Switzerland) at 37 °C for 30 min. […] For EC50 assays, the medium was changed daily for 4 days, then cell viability was assessed using an ATP-based assay. EC50 values for each construct were calculated using a four parameters equation (GraphPad, Prism8, San Diego, CA, USA). […] Luminescence was measured using Spectra L384/L96 (0.2 sec exposure, Molecular devices, Biberach an der Riß, Germany).

Series [2] has as its system ReNcells Ubi-SR39h (proliferating). The experiment in a line: ATP-based assay, EC50 in proliferating neural progenitors. Type of series: cell-based. The note with it: Homo sapiens, 96 h GCV exposure. On the procedure: as §1
Figure 4 EC50 and kinetics of GCV-induced cell death in proliferating and post-mitotic ReNcells. […] Cell viability was measured every 24 h using a bioluminescent ATP-based assay (n = 3). […] Cell viability was measured using an ATP-based assay. […]
Cell culture plate (96 wells plate Corning #3907, Corning, Lonay, Switzerland) were pre-coated with 60 μL per well of Poly-L-ornithine solution (Sigma, Merk, Eysins, Switzerland) at 37 °C for 30 min. […] For EC50 assays, the medium was changed daily for 4 days, then cell viability was assessed using an ATP-based assay. EC50 values for each construct were calculated using a four parameters equation (GraphPad, Prism8, San Diego, CA, USA). […]

Series [3] has as its system ReNcell wt (non-transduced proliferating ReNcells). The experiment in a line: cells. The format is cell-based. The note with it: Homo sapiens; 96 h GCV exposure; read-out: EC50 of GCV, killing of non-transduced proliferating ReNcells. As for the experimental part:
(§2) Cells were exposed to 100 µM of the respective nucleoside for 48 h. DNA damage was monitored using γ-H2A.X marker in yellow and nuclei were counterstained with Hoechst. The white box in the first column indicates the area of the zoom for the hESC colonies.
Plates were washed twice with DMEM-F12 (Gibco, ThermoFisher; Geneva, Switzerland), then coated with Matrigel (Corning, Lonay, Switzerland) 1/100 in DMEM-F12 and incubate 2 h at 37°. Cells were detached using Accutase and seeded at 2000 cells/well in serum-free culture medium containing 10 µM of ROCK inhibitor. At 24 h, the cell culture was continued without ROCK inhibitor. […] Drugs were prepared by serial dilution (two-fold) in 100% DMSO. At 48 h after seeding, cells were exposed to antiviral drugs for 96 h. For EC50 assays, the medium was changed daily for 4 days, then cell viability was assessed using an ATP-based assay. EC50 values for each construct were calculated using a four parameters equation (GraphPad, Prism8, San Diego, CA, USA). The same procedure was used for the cell death kinetic determinations except the treatment duration. Luminescence was measured using Spectra L384/L96 (0.2 sec exposure, Molecular devices, Biberach an der Riß, Germany).

Series [4] concerns non-transduced hESC colonies. The experiment in a line: Morphology and size of hESC colonies upon nucleoside treatment. Type of series: cell-based, human.
Description: We next investigated the impact of ACV, PCV, and GCV on non-transduced hESC and neuroprogenitors (proliferating ReNcells). […] To further understand the impact of nucleoside analogs on non-transduced cells, we performed γ-H2A.X immunostaining (Figure 6B). There was a graded response, virtually identical in hESC and in neuroprogenitors. […] In addition, we investigated the morphology and size of non-transduced hESC colonies upon nucleoside treatment. […] Taken together, our findings confirm considerable toxicity of GCV, even in the absence of viral TK. Note that this was not the case for PCV despite the fact that it is a potent inducer of cell death in thymidine kinase-expressing cells.
as §2

The mark [5] stands for this setting: undifferentiated NPC, read-out: EC50 of GCV.

Each structure is given as a SMILES string. Where two headings read alike, the source gives them in different places.

What is called EC50 is the concentration that produces a half-maximal response. With `Nc1nc(O)c2ncn(COC(CO)CO)c2n1` [GCV, ganciclovir], the “Cell death induction kinetics, Ki67-SR39h compared to Ubi-SR39h” value in series [1] (1 μM and 10 μM GCV, measured every 24 h) was “no significant differences”; in series [1] (100 μM GCV, at 24 h and 48 h, not at 72 h and 96 h) it was “slightly slower dynamic of cell death”. For the same compound, the EC50 in series [1] (24-point dose response, n = 3, read-out: EC50 of GCV, ReNcell Ki67-SR39h) is 2.1 nM; in series [1] (setting [5]) it was around 2.1 nM; in series [2] (24-point dose response, n = 3, read-out: EC50 of GCV, ReNcell Ki67-SR39h (second line of the picture's table)), 2.1 nM; in series [2] (setting [5]) it was around 2.1 nM; in series [3], 12000 nM. For the same compound, in series [4], the “Effect on morphology and size of colonies” value is “smaller colonies”.
